{"source": "patent US12122816B2", "about": "“Long acting peptide tyrosine tyrosine (PYY) analogs and methods of use” (Intarcia Therapeutics, Inc., priority 2020, dated 2024)", "key": {"[1]": {"experiment": "In vitro stability in subcutaneous (SC) tissue homogenates", "type": "in vitro ADME", "conditions": "subcutaneous tissue homogenate, pH 7.4; human SC tissue homogenate 1.0 mg protein/mL, 10 mcM peptide, 37° C.; read-out: (H)SC tissue stability t½ (converted)", "description": "In vitro incubations in subcutaneous (SC) tissue homogenates were used to characterize the ability of peptides to resist pre-systemic degradation by proteases and peptidases after SC administration. […] Peptides with high SC bioavailability are stable in this assay, while peptides with low SC bioavailability are unstable in this assay.\nHuman SC tissue was homogenized in cold 25 mM HEPES buffer (pH 7.4, 10-fold volume based on sample weight), and then filtered through a double layer of cheesecloth. The filtrates were aliquoted, flash frozen on a methanol/dry ice bath and stored at −80° C. The protein concentration of each pooled batch was determined using the BCA protein assay. Thawed stocks of human SC tissue homogenates were diluted to 1.0 mg protein/mL in 25 mM HEPES buffer (pH 7.4) and aliquoted into a 96-well plate. The diluted SC homogenates were pre-warmed for 10 minutes at 37° C. […] Reactions were maintained at 37° C. in a shaking water bath. […] Quenched samples were centrifuged at 2178×g for 10 min and then a portion of the supernatants were transferred to a clean 96-well plate and diluted 1:10 with water. Samples were analyzed by UPLC-MS/MS."}, "[2]": {"experiment": "In vitro metabolic stability in kidney brush border membranes (kBBM)", "type": "in vitro ADME", "conditions": "1 mcM peptide, 37° C.", "description": "In vitro incubations in kidney brush border membrane (kBBM) preparations were used to characterize the ability of peptides to resist degradation by proteases and peptidases in the systemic circulation. kBBM were selected because they contain a high concentration of a diverse set of proteases and peptidases, many of which are present throughout the body.\nBrush border membranes from rat and human kidney tissue were prepared via centrifugation and stored at −70° C. Thawed stocks of rat or human kBBM were diluted to the appropriate concentration in 25 mM HEPES buffer (pH 7.4) containing 1% casein and aliquoted into a 96-well plate. The kBBM solutions were pre-warmed for 10 minutes at 37° C. […] The final concentration of kBBM in each incubation was 50 mcg protein/mL. Reactions were maintained at 37° C. in a shaking water bath. […] Quenched samples were centrifuged at 2178×g for 10 min and then a portion of the supernatants were transferred to a clean 96-well plate and diluted 1:1 with water. Samples were analyzed by UPLC-MS/MS."}, "[3]": {"experiment": "Solubility in DI water at room temperature (visual inspection)", "type": "physicochemical", "conditions": "DI water, TFA salt form, read-out: Solubility (in Water, RT)", "description": "The analog polypeptides described herein were tested for solubility in saline or in aqueous (DI water) at room temperature. Samples were visually inspected for clarity of the sample, any appearance of turbidity or haziness."}}, "note": "Like-named read-outs stand apart in the source and are kept apart here."}
{"smiles": "CC(C)C[C@H](NC(=O)[C@H](Cc1ccc(O)cc1)NC(=O)[C@H](Cc1c[nH]cn1)NC(=O)[C@H](CCCNC(=N)N)NC(=O)[C@H](CC(C)C)NC(=O)[C@H](CC(=O)O)NC(=O)[C@@H](CCCCNC(=O)CC[C@H](NC(=O)CC[C@H](NC(=O)CCCCCCCCCCCCCCCCCCC(=O)O)C(=O)O)C(=O)O)NC(=O)[C@H](Cc1ccc(O)cc1)NC(=O)[C@H](Cc1ccc(O)cc1)NC(=O)[C@H](CCCNC(=N)N)NC(=O)[C@H](CC(N)=O)NC(=O)[C@H](Cc1c[nH]c2ccccc12)NC(=O)[C@H](CCC(=O)O)NC(=O)[C@H](CCC(=O)O)NC(=O)[C@@H]1CCCN1C(=O)[C@H](CO)NC(=O)[C@H](C)NC(=O)[C@H](CC(=O)O)NC(=O)[C@H](CCCCN)NC(=O)CNC(=O)[C@@H]1CCCN1C(=O)[C@H](C)NC(=O)[C@H](CCC(=O)O)NC(=O)[C@@H]1CCCN1C(=O)[C@H](CCCCN)NC(=O)[C@@H]1CCCN1)C(=O)N[C@@H](CC(N)=O)C(=O)N[C@@H](Cc1c[nH]c2ccccc12)C(=O)N[C@@H](CC(C)C)C(=O)N[C@H](C(=O)N[C@@H](CCCNC(=N)N)C(=O)N[C@@H](CCC(N)=O)C(=O)N[C@@H](CCCNC(=N)N)C(=O)N[C@@H](Cc1ccccc1)C(N)=O)[C@@H](C)O", "note": "[Compound A14]", "values": [{"measurement": "half-life at 10 mcM", "setting": "[1]", "result": 4.5, "unit": "h"}, {"measurement": "half-life at 1 mcM", "setting": "[2]; pH 7.4, human kBBM 50 mcg protein/mL, read-out: hkBBM t½ (converted)", "result": "> 12", "unit": "h"}, {"measurement": "half-life at 1 mcM", "setting": "[2]; pH 7.4, rat kBBM 50 mcg protein/mL, read-out: rkBBM t½", "result": "> 12", "unit": "h"}, {"measurement": "solubility", "setting": "[3]", "result": 79, "unit": "mg/mL"}]}
